This is an account of results in article PMC8047729, “Identification of a nanomolar affinity α-synuclein fibril imaging probe by ultra-high throughput in silico screening” (Chemical Science, 2020).

The target in test [1] is αS fibrils (Homo sapiens, UniProt P37840).
Protocol: (§1) αS (50 nM) or Aβ42 (100 nM) fibrils were incubated for 1 h at 37 °C with increasing concentrations of [^125I]61 in 50 mM Tris–HCl, pH 7.4, in a total volume of 150 μL. Nonspecific binding was determined in a duplicate set of binding reactions containing 2 μM non-radioactive 61. After incubation, bound and free radioligand were separated by vacuum filtration through Whatman GF/C filters in a 24-sample harvester system, followed by washing with buffer containing 10 mM Tris–HCl (pH 7.4) and 150 mM NaCl. Filters containing the bound ligand were counted immediately on 2470 WIZARD Automatic Gamma Counter. All data points were collected in triplicate. The equilibrium dissociation constant (Kd) and the maximal number of binding sites (Bmax) were determined by fitting the data to the equation Y = Bmax × X/(Kd + X), using GraphPad Prism software.
(§2) Saturation binding assay. αS (50 nM) or Ab42 (100 nM) fibrils were incubated for 1 h at 37 °C
(§3) with increasing concentrations of [125I]61 in 50 mM Tris-HCl, pH 7.4, in a total volume of 150
(§4) µL. Nonspecific binding was determined in a duplicate set of binding reactions containing 2 µM
unlabeled 61. To measure the amount of radioligand binding to the filter paper, fibrils were
replaced with equal volume of buffer in a duplicate set of binding reactions. After incubation,
bound and free radioligand were separated by vacuum filtration through Whatman GF/C filters
(Brandel) in a 24-sample harvester system (Brandel), followed by washing with buffer containing
10 mM Tris-HCl (pH 7.4) and 150 mM NaCl. Filters containing the bound ligand were counted
immediately on 2470 WIZARD Automatic Gamma Counter (Perkin Elmer). All data points were
acquired in triplicate. The equilibrium dissociation constant (Kd) and the maximal number of
binding sites (Bmax) were determined by globally fitting the total binding and nonspecific binding
Y = Bmax*[X/(Kd+X)] + NS*X (S2)
where X is the concentration of ligand ([125I]61) and NS is nonspecific binding, using GraphPad
Prism software (San Diego, CA, USA).
Test [2] concerns the target Aβ42 fibrils (Homo sapiens, UniProt P05067).
Protocol: as §1, §2, §3, §4
unlabeled 61. To measure the amount of radioligand binding to the filter paper, fibrils were […]
10 mM Tris-HCl (pH 7.4) and 150 mM NaCl. Filters containing the bound ligand were counted […]
binding sites (Bmax) were determined by globally fitting the total binding and nonspecific binding […]
The subject of test [3] is A53T and control mouse brain sections. Type of test: binding.

Aβ42 fibrils, sequence (P05067 672-713 limits assumed): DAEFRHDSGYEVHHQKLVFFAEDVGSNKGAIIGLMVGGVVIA

As usually defined, the Kd is the free concentration of one partner at which half of the binding sites on the other are occupied at equilibrium, for simple one-to-one binding. With `Cc1ccc(OCC(=O)Nc2cc(-c3ccc([125I])cc3)no2)cc1C` [[^125I]61], the values for the Kd in test [1] and in test [2] were 1.06 nM and 4.56 nM, respectively. For the same molecule, the “Levels of non-specific binding” value in test [1] (saturation binding experiments) is recorded as “relatively high”. In addition, the “Autoradiography signal in whole brain sections” value in test [3] is “increased signal in A53T mouse brain in αS-rich regions compared with the control”.
